In patent US20260285850A1, “SUBSTITUTED OXAZOLIDINONES AND IMIDAZOLINONES AS HERBICIDES” (FMC CORPORATION, priority 2023, published 2026):

What was measured:
Type in all cases: in vivo
[1] = system: palmer (palmer amaranth, palmer pigweed, Amaranthus palmeri); test: Test A preemergence soil spray, visual injury rating 0-100; conditions: 10 days, 0 = no effect, 100 = complete control
Outline: (§1)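 Visual injury ratings (0, no effect; 100, complete control) were assigned relative to untreated plants 10 days after treatment. Test chemicals, formulated with a surfactant-containing non-phytotoxic solvent, were applied in loam-sand soil either as a directed soil spray before emergence or to emerged plants, and plants were kept in a greenhouse.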

[2] = system: barnyardgrass (Echinochloa crus-galli); test: as above; conditions: 10 days, 0 = no effect, 100 = complete control
Outline: as §1

[3] = system: ryegrass, Italian (italian ryegrass, Lolium multiflorum); test: as above; conditions: 10 days, 0 = no effect, 100 = complete control
Outline: as §1

corn (Zea mays) [4] = test: as above; conditions: 10 days, 0 = no effect, 100 = complete control
Outline: as §1

soybean (Glycine max) [5] = test: as above; conditions: 10 days, 0 = no effect, 100 = complete control
Outline: as §1

[6] = system: green foxtail (Setaria viridis); test: as above; conditions: 10 days, 0 = no effect, 100 = complete control
Outline: as §1

[7] = system: wheat (Triticum aestivum); test: as above; conditions: 10 days, 0 = no effect, 100 = complete control
Outline: as §1

[8] = system: ragweed (common ragweed, Ambrosia artemisiifolia); test: as above; conditions: 10 days, 0 = no effect, 100 = complete control
Outline: as §1

[9] = system: oat, wild (wild oat, Avena fatua); test: as above; conditions: 10 days, 0 = no effect, 100 = complete control
Outline: as §1

[10] = system: blackgrass (Alopecurus myosuroides); test: as above; conditions: 10 days, 0 = no effect, 100 = complete control
Outline: as §1

kochia (Bassia scoparia) [11] = test: as above; conditions: 10 days, 0 = no effect, 100 = complete control
Outline: as §1

[12] = system: palmer (palmer amaranth, palmer pigweed, Amaranthus palmeri); test: Test A postemergence application, visual injury rating 0-100; conditions: 10 days
Outline: as §1

[13] = system: horseweed (Erigeron canadensis); test: as above; conditions: 10 days
Outline: as §1

[14] = system: barnyardgrass (Echinochloa crus-galli); test: as above; conditions: 10 days
Outline: as §1

[15] = system: ryegrass, Italian (italian ryegrass, Lolium multiflorum); test: as above; conditions: 10 days
Outline: as §1

corn (Zea mays) [16] = test: as above; conditions: 10 days
Outline: as §1

soybean (Glycine max) [17] = test: as above; conditions: 10 days
Outline: as §1

[18] = system: green foxtail (Setaria viridis); test: as above; conditions: 10 days
Outline: as §1

[19] = system: wheat (Triticum aestivum); test: as above; conditions: 10 days
Outline: as §1

[20] = system: ragweed (common ragweed, Ambrosia artemisiifolia); test: as above; conditions: 10 days
Outline: as §1

[21] = system: galium (catchweed bedstraw, Galium aparine); test: as above; conditions: 10 days
Outline: as §1

[22] = system: oat, wild (wild oat, Avena fatua); test: as above; conditions: 10 days
Outline: as §1

[23] = system: blackgrass (Alopecurus myosuroides); test: as above; conditions: 10 days
Outline: as §1

kochia (Bassia scoparia) [24] = test: as above; conditions: 10 days
Outline: as §1

rice (Oryza sativa) = test: Test B flooded paddy test, visual plant response rating 0-100; conditions: 250 g ai/ha, Flood, applied to paddy water, evaluated after 13 days
Outline: (§2)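 Visual scores versus untreated controls were recorded 13 days after treatment of greenhouse-held plants. At the 2-leaf stage, pots were flooded 3 cm above the soil surface and compounds added straight to the water.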

[25] = system: barnyardgrass (Echinochloa crusgalli); test: as above; conditions: 250 g ai/ha, Flood, applied to paddy water, evaluated after 13 days
Outline: as §2

[26] = system: sedge, umbrella (small-flower umbrella sedge, Cyperus difformis); test: as above; conditions: 250 g ai/ha, Flood, applied to paddy water, evaluated after 13 days
Outline: as §2

[27] = system: ducksalad (Heteranthera limosa); test: as above; conditions: 250 g ai/ha, Flood, applied to paddy water, evaluated after 13 days
Outline: as §2

[28] = 31 g ai/ha, postemergence, 0 = no effect, 100 = complete control
[29] = Postemergence, 125 g ai/ha, 0 is no effect, 100 is complete control

CC(C)OC(=O)C1CC(NC(=O)C2(C)CN(c3cc(F)cc(F)c3)C(=O)O2)CO1 (stereo not shown) [Compound 32]
Amaranth, Palmer plant response rating (0-100) ([1]; 31 g ai/ha): 0 | Amaranth, Palmer plant response rating (0 to 100 scale) ([1]; 125 g ai/ha): 0 | Barnyardgrass plant response rating (0-100) ([2]; 31 g ai/ha): 0 | Barnyardgrass plant response rating (0 to 100 scale) ([2]; 125 g ai/ha): 0 | Ryegrass, Italian plant response rating (0-100) ([3]; 31 g ai/ha): 0 | Ryegrass, Italian plant response rating (0 to 100 scale) ([3]; 125 g ai/ha): 80 | Corn plant response rating (0-100) (corn (Zea mays) [4]; 31 g ai/ha): 0 | Corn plant response rating (0 to 100 scale) (corn (Zea mays) [4]; 125 g ai/ha): 10 | Soybean plant response rating (0-100) (soybean (Glycine max) [5]; 31 g ai/ha): 20 | Soybean plant response rating (0 to 100 scale) (soybean (Glycine max) [5]; 125 g ai/ha): 0 | Foxtail, Green plant response rating (0-100) ([6]; 31 g ai/ha): 0 | Foxtail, Green plant response rating (0 to 100 scale) ([6]; 125 g ai/ha): 0 | Wheat plant response rating (0-100) ([7]; 31 g ai/ha): 0 | Wheat plant response rating (0 to 100 scale) ([7]; 125 g ai/ha): 70 | Ragweed plant response rating (0-100) ([8]; 31 g ai/ha): 0 | Ragweed plant response rating (0 to 100 scale) ([8]; 125 g ai/ha): 0 | Oat, Wild plant response rating (0-100) ([9]; 31 g ai/ha): 0 | Oat, Wild plant response rating (0 to 100 scale) ([9]; 125 g ai/ha): 40 | Blackgrass plant response rating (0-100) ([10]; 31 g ai/ha): 0 | Blackgrass plant response rating (0 to 100 scale) ([10]; 125 g ai/ha): 0 | Kochia plant response rating (0-100) (kochia (Bassia scoparia) [11]; 31 g ai/ha): 0 | Kochia plant response rating (0 to 100 scale) (kochia (Bassia scoparia) [11]; 125 g ai/ha): 20 | Amaranth, Palmer plant response rating (0-100) [12, 28]: 0 | Amaranth, Palmer / Pigweed, Palmer plant response rating (0 to 100 scale) [12, 29]: 30 | Horseweed plant response rating (0-100) [13, 28]: 0 | Horseweed plant response rating (0 to 100 scale) [13, 29]: 0 | Barnyardgrass plant response rating (0-100) [14, 28]: 0 | Barnyardgrass plant response rating (0 to 100 scale) [14, 29]: 90 | Ryegrass, Italian plant response rating (0-100) [15, 28]: 20 | Ryegrass, Italian plant response rating (0 to 100 scale) [15, 29]: 80 | Corn plant response rating (0-100) (corn (Zea mays) [16]; [28]): 0 | Corn plant response rating (0 to 100 scale) (corn (Zea mays) [16]; [29]): 50 | Soybean plant response rating (0-100) (soybean (Glycine max) [17]; [28]): 20 | Soybean plant response rating (0 to 100 scale) (soybean (Glycine max) [17]; [29]): 60 | Foxtail, Green plant response rating (0-100) [18, 28]: 0 | Foxtail, Green plant response rating (0 to 100 scale) [18, 29]: 40 | Wheat plant response rating (0-100) [19, 28]: 80 | Wheat plant response rating (0 to 100 scale) [19, 29]: 90 | Ragweed plant response rating (0-100) [20, 28]: 30 | Ragweed plant response rating (0 to 100 scale) [20, 29]: 50 | Galium plant response rating (0-100) [21, 28]: 50 | Galium plant response rating (0 to 100 scale) [21, 29]: 80 | Oat, Wild plant response rating (0-100) [22, 28]: 80 | Oat, Wild plant response rating (0 to 100 scale) [22, 29]: 90 | Blackgrass plant response rating (0-100) [23, 28]: 80 | Blackgrass plant response rating (0 to 100 scale) [23, 29]: 100 | Kochia plant response rating (0-100) (kochia (Bassia scoparia) [24]; [28]): 40 | Kochia plant response rating (0 to 100 scale) (kochia (Bassia scoparia) [24]; [29]): 50 | Plant response rating, Rice (0 to 100 scale, 0 is no effect and 100 is complete control) (rice (Oryza sativa)): 0 | Plant response rating, Barnyardgrass (0 to 100 scale, 0 is no effect and 100 is complete control) [25]: 0 | Plant response rating, Sedge, Umbrella (0 to 100 scale, 0 is no effect and 100 is complete control) [26]: 0 | Plant response rating, Ducksalad (0 to 100 scale, 0 is no effect and 100 is complete control) [27]: 0
